Reference: ChEMBL document CHEMBL1138904, “2-Aryl(pyrrolidin-4-yl)acetic acids are potent agonists of sphingosine-1-phosphate (S1P) receptors” (Bioorg Med Chem Lett, 2006)
pIC50: −log10 of the molar value. Calls of active or inactive are those of the source. The rule behind the calls is not given here.

Assays:
[1] = Oral bioavailability in Sprague-Dawley rat at 1 mg/kg, iv and 2 mg/kg, po; assay type: ADME, organism-based; conditions: in vivo
[2] = molecular target: Sphingosine 1-phosphate receptor 1 (Homo sapiens, UniProt P21453); experiment: Displacement of [33P]S1P from human S1P1 receptor expressed in CHO cells; assay type: cell-based
Sequence of Sphingosine 1-phosphate receptor 1 (P21453 whole entry): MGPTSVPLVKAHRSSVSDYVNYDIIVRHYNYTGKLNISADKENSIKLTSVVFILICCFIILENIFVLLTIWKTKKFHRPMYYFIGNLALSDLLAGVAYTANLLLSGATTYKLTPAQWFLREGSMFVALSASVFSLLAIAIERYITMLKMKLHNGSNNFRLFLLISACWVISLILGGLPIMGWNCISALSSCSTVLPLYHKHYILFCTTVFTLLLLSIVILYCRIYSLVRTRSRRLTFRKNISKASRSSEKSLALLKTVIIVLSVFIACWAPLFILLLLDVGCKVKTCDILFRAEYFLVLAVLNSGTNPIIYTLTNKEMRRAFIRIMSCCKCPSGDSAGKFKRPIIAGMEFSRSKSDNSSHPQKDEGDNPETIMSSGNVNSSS

[3] = molecular target: Sphingosine 1-phosphate receptor 3 (Homo sapiens, UniProt Q99500); experiment: Displacement of [33P]S1P from human S1P3 receptor expressed in CHO cells; assay type: cell-based
Sequence of Sphingosine 1-phosphate receptor 3 (Q99500 whole entry): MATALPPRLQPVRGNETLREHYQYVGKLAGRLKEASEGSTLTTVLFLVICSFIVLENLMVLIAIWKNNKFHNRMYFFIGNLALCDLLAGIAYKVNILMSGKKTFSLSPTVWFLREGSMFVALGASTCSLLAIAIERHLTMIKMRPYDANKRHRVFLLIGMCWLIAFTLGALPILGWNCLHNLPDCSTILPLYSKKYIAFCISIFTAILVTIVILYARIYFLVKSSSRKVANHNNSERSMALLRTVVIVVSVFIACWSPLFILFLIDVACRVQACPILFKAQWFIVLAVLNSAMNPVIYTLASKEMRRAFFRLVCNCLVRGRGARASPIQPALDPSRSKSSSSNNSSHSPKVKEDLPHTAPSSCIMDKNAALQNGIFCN

[4] = molecular target: Sphingosine 1-phosphate receptor 2 (Homo sapiens, UniProt O95136); experiment: Displacement of [33P]S1P from human S1P2 receptor expressed in CHO cells; assay type: cell-based
Sequence of Sphingosine 1-phosphate receptor 2 (O95136 whole entry): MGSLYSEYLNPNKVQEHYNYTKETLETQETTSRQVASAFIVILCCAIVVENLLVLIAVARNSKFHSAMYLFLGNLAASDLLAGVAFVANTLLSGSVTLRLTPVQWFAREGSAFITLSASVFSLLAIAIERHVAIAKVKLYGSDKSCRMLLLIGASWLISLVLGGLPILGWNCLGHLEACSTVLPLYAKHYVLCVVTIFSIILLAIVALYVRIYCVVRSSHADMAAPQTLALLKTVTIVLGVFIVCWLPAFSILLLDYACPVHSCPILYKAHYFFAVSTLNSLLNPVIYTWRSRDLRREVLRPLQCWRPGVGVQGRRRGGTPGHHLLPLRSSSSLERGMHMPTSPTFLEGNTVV

[5] = molecular target: Sphingosine 1-phosphate receptor 5 (Homo sapiens, UniProt Q9H228); experiment: Displacement of [33P]S1P from human S1P5 receptor expressed in CHO cells; assay type: cell-based
Sequence of Sphingosine 1-phosphate receptor 5 (Q9H228 whole entry): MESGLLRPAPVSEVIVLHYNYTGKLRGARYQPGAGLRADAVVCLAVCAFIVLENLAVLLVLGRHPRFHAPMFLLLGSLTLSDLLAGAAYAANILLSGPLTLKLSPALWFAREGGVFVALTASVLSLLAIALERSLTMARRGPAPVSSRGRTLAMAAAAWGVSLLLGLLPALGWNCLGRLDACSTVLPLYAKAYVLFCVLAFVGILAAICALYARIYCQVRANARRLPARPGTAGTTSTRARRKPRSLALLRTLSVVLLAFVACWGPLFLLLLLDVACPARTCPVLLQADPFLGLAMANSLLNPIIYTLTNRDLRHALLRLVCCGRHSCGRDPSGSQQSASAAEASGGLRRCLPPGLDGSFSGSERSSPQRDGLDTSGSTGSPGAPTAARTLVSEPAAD

[6] = test system: PBL; experiment: Reduction in peripheral blood lymphocyte count in mouse at 10 mg/kg, po relative to control; assay type: functional; set-up: scale not given: the % may be the effect or the level left
[7] = molecular target: T1, Sphingosine 1-phosphate receptor 4 (Homo sapiens, UniProt O95977); experiment: Displacement of [33P]S1P from human S1P4 receptor expressed in CHO cells; assay type: cell-based
T1 sequence (O95977 whole entry): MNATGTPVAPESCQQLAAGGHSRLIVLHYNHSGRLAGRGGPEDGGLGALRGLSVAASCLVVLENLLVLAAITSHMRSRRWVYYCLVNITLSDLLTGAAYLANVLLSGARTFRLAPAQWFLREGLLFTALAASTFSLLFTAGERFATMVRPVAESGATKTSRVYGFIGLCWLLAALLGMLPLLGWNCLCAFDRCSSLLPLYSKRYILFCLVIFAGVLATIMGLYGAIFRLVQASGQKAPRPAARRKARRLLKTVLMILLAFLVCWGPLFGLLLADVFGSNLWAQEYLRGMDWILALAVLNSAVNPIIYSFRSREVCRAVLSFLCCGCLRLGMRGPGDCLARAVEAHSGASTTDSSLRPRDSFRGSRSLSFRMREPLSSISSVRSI

[8] = Half life in Sprague-Dawley rat at 1 mg/kg, iv and 2 mg/kg, po; assay type: ADME, organism-based; conditions: in vivo
[9] = test system: PBL; experiment: […] of peripheral blood lymphocyte in mouse at 1 mg/kg, po; assay type: functional, organism-based; set-up: dose 1 mg/kg
[10] = Volume of distribution in Sprague-Dawley rat at 1 mg/kg, iv and 2 mg/kg, po; assay type: ADME, organism-based; conditions: in vivo, read-out: Vss
[11] = test system: PBL; experiment: […] of peripheral blood lymphocyte in orally dosed mouse; assay type: functional, organism-based
[12] = Clearance in Sprague-Dawley rat at 1 mg/kg, iv and 2 mg/kg, po; assay type: ADME, organism-based; conditions: in vivo

Compound | bioavailability [1] [%] | pIC50 [2] | pIC50 [3] | pIC50 [4] | pIC50 [5] | Activity [6] [%] | pIC50 [7] | half-life [8] [h] | Activity [9] | Vd [10] [L/kg] | Activity [11] | clearance [12] [mL/min/kg] | pIC50 ([4]; cho)
CC(C)Cc1ccc(-c2nc(-c3ccc(CN4CC(C(=O)O)C4)cc3)no2)cc1 | 67 | – | – | – | – | – | – | – | – | – | – | – | –
O=C(O)CC1CNC(c2ccc(OCc3cc(-c4ccccc4)c(C(F)(F)F)s3)cc2)C1 (stereo not given) | – | 8.66 | 5.68 | < 5.00 | 6.41 | 39 | 6.41 | – | – | – | – | – | –
O=C(O)C1CNC(c2ccc(OCc3cc(-c4ccccc4)c(C(F)(F)F)s3)cc2)C1 (stereo not given) | – | 7.60 | 5.32 | < 5.00 | 6.89 | – | 5.57 | – | – | – | – | – | –
O=C(O)C[C@@H]1CN[C@@H](c2ccc(-c3noc(-c4ccc(C5CCC(F)(F)CC5)cc4)n3)cc2)C1 (relative stereo) | 23 | 8.70 | 6.34 | < 5.00 | 7.68 | – | 6.96 | 4.4 | Active | 2.2 | Active | 3.5 | –
O=C(O)C[C@@H]1CN[C@@H](c2ccc(-c3noc(-c4ccc(C5CCCC5)cc4)n3)cc2)C1 (relative stereo) | – | 9.00 | < 6.00 | < 5.00 | 7.17 | – | 6.92 | – | – | – | – | – | –
O=C(O)C[C@@H]1CN[C@@H](c2ccc(-c3noc(-c4ccc(C5CCCCC5)cc4)n3)cc2)C1 (relative stereo) | – | 8.85 | 5.51 | < 5.00 | 7.24 | – | 6.96 | – | – | – | Active | – | –
CC(C)Cc1ccc(-c2nc(-c3ccc([C@H]4C[C@@H](CC(=O)O)CN4)cc3)no2)cc1 (relative stereo) | 27 | 8.10 | 5.82 | < 5.00 | 6.85 | – | 6.80 | 10.9 | – | 2.9 | Active | 3.4 | –
CC(C)Cc1ccc(-c2nc(-c3ccc([C@H]4C[C@H](CC(=O)O)CN4)cc3)no2)cc1 (relative stereo) | 79 | 8.24 | < 6.00 | < 5.00 | 6.52 | – | 6.82 | 10.7 | – | 6.6 | – | 7.4 | –
O=C(O)C[C@@H]1CN[C@@H](c2ccc(-c3noc(-c4ccc(CCC(F)(F)F)cc4)n3)cc2)C1 (relative stereo) | – | 8.26 | < 6.00 | < 5.00 | 7.30 | – | 6.64 | – | – | – | – | – | –
O=C(O)C[C@@H]1CN[C@@H](c2ccc(-c3noc(-c4ccc([C@@H]5CCC(F)(F)C5)cc4)n3)cc2)C1 (stereo in doubt; 22f) [listing 1 of 2 here] | – | 8.92 | 6.16 | – | 8.29 | – | 7.49 | – | – | – | – | – | < 5.00
O=C(O)C[C@@H]1CN[C@@H](c2ccc(-c3noc(-c4ccc([C@@H]5CCC(F)(F)C5)cc4)n3)cc2)C1 (stereo in doubt; 22f) [listing 2 of 2 here] | – | – | – | – | – | – | – | – | Active | – | – | – | –
O=C(O)C[C@@H]1CN[C@@H](c2ccc(-c3noc(-c4ccc([C@@H]5CCC(F)(F)C5)cc4)n3)cc2)C1 (stereo in doubt; 22g) [listing 1 of 2 here] | 36 | 9.10 | 5.96 | < 5.00 | 7.96 | – | 6.10 | 5.6 | – | 1.3 | – | 2.1 | –
O=C(O)C[C@@H]1CN[C@@H](c2ccc(-c3noc(-c4ccc([C@@H]5CCC(F)(F)C5)cc4)n3)cc2)C1 (stereo in doubt; 22g) [listing 2 of 2 here] | – | – | – | – | – | – | – | – | Active | – | Active | – | –
